Consider 25 compounds from US8846704B2, “Thiopyrimidine-based compounds and uses thereof” (YM Biosciences Austraila Pty Ltd, priority 2007, dated 2014).

In experiment [1] the target is T1, human JAK2 (Homo sapiens, UniProt O60674).
T1 construct: The kinase domain of human JAK2 was amplified; GST (N); made in house; host or cells: Sf9 insect cells (baculovirus)
Nature of the experiment: Alphascreen tyrosine kinase enzyme assay, JAK2 kinase domain. Format: biochemical. The following applies: read-out: JAK2 IC50_nM. Summed up:
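JAK2 kinase domain expressed in baculovirus/Sf9 and glutathione-affinity purified. Compounds (final […]) pre-incubated 20 min with enzyme in 10 mM HEPES pH 7.5, MgCl2, NaCl, vanadate, 0.1% Tween 20.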
(In Alpha technology, singlet oxygen from a donor bead excites a nearby acceptor bead.)

The target of experiment [2] is T2, BaF3 TELJAK2 cells (BafT_J2) (Homo sapiens, UniProt O60674).
T2 construct: fused on or other part: TEL (ETV6) N-terminal part, coding nucleotides 1-487, serves as the oligomerising partner; It is fused through a Sal I site to the JAK2 kinase domain and expressed from pTRE2 in BaF3 cells bearing pTET-off; P41212 (Transcription factor ETV6)
The experiment in a line: Cellular screening, BaF3 TEL:JAK2 cells, Alamar Blue. Type of experiment: cell-based. Conditions: 40 hr, read-out: BafT_J2 IC50_nM. The procedure:
For screening purposes, compounds were diluted in 96 well plates at a concentration of 20 μM. Plates were warmed at 37° C. for 30 minutes before the assay was performed.
The coding region encompassing nucleotides 1-487 of TEL was amplified by PCR using the oligonucleotides STEL (5′-GGAGGATCCTGATCTCTCTCGCTGTGAGAC-3′) [SEQ ID NO 14] and 3TEL (5′-AGGC GTCGACTTCTTCTTCATGGTTCTG-3′) [SEQ ID NO 15] and U937 mRNA as a template. A […] restriction site was incorporated into the STEL primer, and a Sal I restriction site was incorporated into the 3TEL primer. The regions encompassing the kinase domain of JAK2 (nucleotides 2994-3914; JAK2F 5′-ACGC GTCGACGGTGCCTTTGAAGACCGGGAT-3′ [SEQ ID NO 16]; JAK2R 5′-ATAGTTTAGCGGCCGCTCAGAATGAAGGTCATTT-3′) [SEQ ID NO 17] and JAK3 (nucleotides 2520-3469; JAK3F 5′-GAAGTCGACTATGCCTGCCAAGACCCCACGATCTT-3′) [SEQ ID NO 18] were generated by PCR using Taq DNA polymerase (Gibco/BRL) and […] as a template. A Sal I restriction site was incorporated into the forward primer of JAK2 and JAK3, a Not I site was incorporated into the JAK2 reverse primer and a Xba I site was added to the reverse primer of JAK3.
A TEL/Jak2 fusion was generated by digestion of the TELPCR product with BamH I/Sal I restriction enzymes, digestion of the JAK2 PCR product with Sal I/Not I restriction enzymes, followed by ligation and subcloning of the ligation product into the mammalian expression Vector pTRE 2 (Clontech), which was prepared by digestion with BamH I-Not I restriction enzymes, to give the TEL/Jak2 fusion plasmid pTELJAK2.
The growth factor dependant myelomonocytic cell line BaF3 bearing the pTET-off plasmid (Clontech) was transfected with either pTELJAK2 or pTELJAK3, and the transfected cells were selected for growth-factor independent cell growth. The BaF3 wild-type cells were cultured in DMEM containing 10% FCS, 10% WEHI 3B conditioned medium. The BaF3 TELJAK cells ([…]) were cultured in DMEM 10% Tet-System Approved FBS (without WEHI 3B conditioned medium).
Cell suspensions were prepared by harvesting cells from culture (the cells used in this test were in late log phase growth with high viability.) Cells were diluted in the appropriate growth medium, as described above, to 1.1× final concentration (from 50,000 cell/mL to 200,000 cell/mL, depending on cell line).
Compounds to be tested were added (10 μL, 10× final concentration) to a flat bottomed 96-well plate. The cellular suspension (90 μL per well) was then added, and the plate incubated for 40 hr at 37° C., 5% CO2. Alamar Blue 10 μL per well was added and the plates returned to the incubator for a further 4-6 hours. The plates were then read at 544 nm.
Background: Resazurin is reduced to fluorescent resorufin, in cell work by metabolically active cells.

T1 sequence (O60674 849-1124 limits assumed): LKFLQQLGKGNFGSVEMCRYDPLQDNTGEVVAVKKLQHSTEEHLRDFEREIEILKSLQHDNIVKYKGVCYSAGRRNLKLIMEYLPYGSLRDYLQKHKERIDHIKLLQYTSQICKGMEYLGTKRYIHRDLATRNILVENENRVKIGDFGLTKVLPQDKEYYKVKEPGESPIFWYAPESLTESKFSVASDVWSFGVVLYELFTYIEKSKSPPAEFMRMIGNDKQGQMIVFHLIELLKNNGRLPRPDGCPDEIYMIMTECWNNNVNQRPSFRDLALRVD
T2 sequence (O60674 whole entry, change not shown, the tested form may be a part): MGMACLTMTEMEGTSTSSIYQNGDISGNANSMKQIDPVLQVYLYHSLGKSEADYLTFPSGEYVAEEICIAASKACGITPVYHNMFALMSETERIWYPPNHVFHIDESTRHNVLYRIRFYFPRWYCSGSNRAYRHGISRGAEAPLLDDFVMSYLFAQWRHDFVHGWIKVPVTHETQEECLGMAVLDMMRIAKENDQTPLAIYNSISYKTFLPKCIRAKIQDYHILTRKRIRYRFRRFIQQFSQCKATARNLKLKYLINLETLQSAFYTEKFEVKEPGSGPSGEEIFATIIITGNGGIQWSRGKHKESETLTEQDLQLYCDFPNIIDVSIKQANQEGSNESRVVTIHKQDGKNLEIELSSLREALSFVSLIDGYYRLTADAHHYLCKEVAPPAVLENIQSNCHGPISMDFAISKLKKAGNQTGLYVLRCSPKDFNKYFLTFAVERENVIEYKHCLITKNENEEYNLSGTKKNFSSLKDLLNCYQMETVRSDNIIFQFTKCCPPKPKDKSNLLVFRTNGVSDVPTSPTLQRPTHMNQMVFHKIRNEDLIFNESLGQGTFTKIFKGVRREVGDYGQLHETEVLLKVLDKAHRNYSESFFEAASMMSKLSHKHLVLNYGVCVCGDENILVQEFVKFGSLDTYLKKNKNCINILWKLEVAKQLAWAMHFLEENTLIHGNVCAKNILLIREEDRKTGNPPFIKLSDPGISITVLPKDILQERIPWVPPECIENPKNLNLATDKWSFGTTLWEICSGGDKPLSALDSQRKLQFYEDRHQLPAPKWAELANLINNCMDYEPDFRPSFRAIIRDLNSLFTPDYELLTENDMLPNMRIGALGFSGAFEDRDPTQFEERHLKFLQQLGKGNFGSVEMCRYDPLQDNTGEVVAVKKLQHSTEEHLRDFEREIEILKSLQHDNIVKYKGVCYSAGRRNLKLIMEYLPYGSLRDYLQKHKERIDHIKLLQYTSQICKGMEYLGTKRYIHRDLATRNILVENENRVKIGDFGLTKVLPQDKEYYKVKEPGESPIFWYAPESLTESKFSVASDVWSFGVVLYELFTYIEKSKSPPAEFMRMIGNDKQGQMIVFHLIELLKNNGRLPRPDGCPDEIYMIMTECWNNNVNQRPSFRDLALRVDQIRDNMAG

In the case of `C=CC(=O)Nc1ccc(Sc2nc(Nc3ccc(N4CCOCC4)cc3)ncc2C)c(C)c1` [Compound 163, N-(3-methyl-4-(5-methyl-2-(4-morpholinophenylao)pyrimidin-4-ylthio)phenyl)acrylamide], in experiment [1], the IC50 was over 1000 nM. Besides, the GI50 in experiment [2] is over 20000 nM.
The matching figures for `Cc1cnc(Nc2ccc(N3CCOCC3)cc2)nc1Sc1c(C)cc(N)cc1C` [Compound 165, 4-(4-ao-2,6-dimethylphenylthio)-5-methyl-N-(4-morpholinophenyl)pyrimidin-2-ae]: over 1000 nM and over 20000 nM.
The matching figures for `C=CC(=O)N(C)c1ccc(Sc2nc(Nc3ccc(N4CCOCC4)cc3)ncc2C)cc1` [Compound 173, N-methyl-N-(4-(5-methyl-2-(4-morpholinophenylao)pyrimidin-4-ylthio)phenyl)acrylamide]: under 500 nM and under 20000 nM.
The like results for `Cc1cnc(Nc2ccc(O)cc2)nc1Sc1ccc(NC(=O)CCl)cc1` [Compound 193, 2-chloro-N-(4-(2-(4-hydroxyphenylao)-5-methylpyrimidin-4-ylthio)phenyl)acetamide] were, in that order, over 1000 nM and under 5000 nM.
As for `Cc1cnc(Nc2cccc(O)c2)nc1Sc1ccc(NC(=O)CCl)cc1` [Compound 194, 2-chloro-N-(4-(2-(3-hydroxyphenylao)-5-methylpyrimidin-4-ylthio)phenyl)acetamide], the IC50 in experiment [1] is over 1000 nM. Also, the GI50 in experiment [2] was under 5000 nM.
`N#Cc1ncn(Cc2ccc(Sc3ccnc(Nc4ccc(N5CCOCC5)cc4)n3)cc2)c1C#N` [Compound 201, 1-(4-(2-(4-morpholinophenylao)pyrimidin-4-ylthio)benzyl)-1H-imidazole-4,5-dicarbonitrile]: the IC50 in experiment [1] was over 1000 nM. The GI50 in experiment [2] was under 5000 nM.
The like results for `Cc1cnc(Nc2ccc(N3CCOCC3)cc2)nc1Sc1ccc(NC(=O)CSCC(=O)O)cc1` [Compound 230, 2-(2-(4-(5-methyl-2-(4-morpholinophenylao)pyrimidin-4-ylthio)phenylao)-2-oxoethylthio)acetic acid] were, in that order, under 500 nM and over 20000 nM.
The matching figures for `Cc1cnc(Nc2ccc(N3CCOCC3)cc2)nc1Sc1ccc(N2C(=O)CSCC2=O)cc1` [Compound 231, 4-(4-(5-methyl-2-(4-morpholinophenylao)pyrimidin-4-ylthio)phenyl)thiomorpholine-3,5-dione]: over 1000 nM and under 20000 nM.
For the compound `CC#CC(=O)Nc1cccc(Sc2ccnc(Nc3cccc(N4CCOCC4)c3)n2)c1` [Compound 232, N-(3-(2-(3-morpholinophenylao)pyrimidin-4-ylthio)phenyl)but-2-ynamide], in experiment [1], the IC50 was over 1000 nM. The GI50 in experiment [2] was under 20000 nM.
In the case of `CC#CC(=O)Nc1ccc(Sc2ccnc(Nc3cccc(N4CCOCC4)c3)n2)cc1` [Compound 233, N-(4-(2-(3-morpholinophenylao)pyrimidin-4-ylthio)phenyl)but-2-ynamide], in experiment [1], the IC50 was over 1000 nM. The GI50 in experiment [2] was under 5000 nM.
The matching figures for `C=CC(=O)Nc1ccc(Sc2nc(Nc3cccc(OC)c3)ncc2C)cc1` [Compound 235, N-(4-(2-(3-methoxyphenylao)-5-methylpyrimidin-4-ylthio)phenyl)acrylamide]: over 1000 nM and under 20000 nM.
For the compound `C=CC(=O)Nc1ccc(Sc2nc(Nc3cccc(N4CCOCC4)c3)ncc2C)cc1` [Compound 237, N-(4-(5-methyl-2-(3-morpholinophenylao)pyrimidin-4-ylthio)phenyl)acrylamide], the IC50 in experiment [1] was over 1000 nM. Besides, the GI50 in experiment [2] is under 5000 nM.
As to `C=CC(=O)Nc1ccc(Sc2ccnc(Nc3ccc(N4CCN(C)CC4)cc3)n2)cc1` [Compound 238, N-(4-(2-(4-(4-methylpiperazin-1-yl)phenylao)pyrimidin-4-ylthio)phenyl)acrylamide], in experiment [1], the IC50 is over 1000 nM. Besides, in experiment [2], the GI50 was under 5000 nM.
As for `C=CC(=O)Nc1ccc(Sc2nc(Nc3ccc(N4CCN(C)CC4)cc3)ncc2C)cc1` [Compound 239, N-(4-(5-methyl-2-(4-(4-methylpiperazin-1-yl)phenylao)pyrimidin-4-ylthio)phenyl)acrylamide], in experiment [1], the IC50 was under 1000 nM. In addition, the GI50 in experiment [2] is under 5000 nM.
The matching figures for `COc1ccc(Nc2ncc(C)c(Sc3ccc(N)cc3)n2)cc1OC` [Compound 240, 4-(4-aophenylthio)-N-(3,4-dimethoxyphenyl)-5-methylpyrimidin-2-ae]: over 1000 nM and under 5000 nM.
Turning to `C=CC(=O)Nc1ccc(Sc2nc(Nc3ccc(OC)c(OC)c3)ncc2C)cc1` [Compound 241, N-(4-(2-(3,4-dimethoxyphenylao)-5-methylpyrimidin-4-ylthio)phenyl)acrylamide], the IC50 in experiment [1] was over 1000 nM. The GI50 in experiment [2] was under 5000 nM.
The matching figures for `C=CC(=O)Nc1ccc(Sc2nc(Nc3ccc(C)c(Br)c3)ncc2C)cc1` [Compound 242, N-(4-(2-(3-bromo-4-methylphenylao)-5-methylpyrimidin-4-ylthio)phenyl)acrylamide]: over 1000 nM and over 20000 nM.
The like results for `C=CC(=O)Nc1ccc(Sc2nc(Nc3cccc(N4CCN(C)CC4)c3)ncc2C)cc1` [Compound 243, N-(4-(5-methyl-2-(3-(4-methylpiperazin-1-yl)phenylao)pyrimidin-4-ylthio)phenyl)acrylamide] were, in that order, over 1000 nM and under 5000 nM.
In the case of `Cc1cnc(Nc2ccc(N3CCN(C)CC3)cc2)nc1Sc1ccc(N)cc1` [Compound 244, 4-(4-aophenylthio)-5-methyl-N-(4-(4-methylpiperazin-1-yl)phenyl)pyrimidin-2-ae], the IC50 in experiment [1] was under 500 nM. Further, the GI50 in experiment [2] was under 5000 nM.
The matching figures for `Cc1cnc(Nc2cccc(N3CCN(C)CC3)c2)nc1Sc1ccc(N)cc1` [Compound 245, 4-(4-aophenylthio)-5-methyl-N-(3-(4-methylpiperazin-1-yl)phenyl)pyrimidin-2-ae]: under 500 nM and under 1000 nM.
As for `C=CC(=O)Nc1ccc(Sc2nc(Nc3ccc(C4CCN(C)CC4)cc3)ncc2C)cc1` [Compound 246, N-(4-(5-methyl-2-(4-(1-methylpiperidin-4-yl)phenylao)pyrimidin-4-ylthio)phenyl)acrylamide], the IC50 in experiment [1] is over 1000 nM. For the same compound, in experiment [2], the GI50 was under 5000 nM.
The like results for `C=CC(=O)Nc1ccc(Sc2nc(Nc3ccc(N4CCOCC4)c(OC)c3)ncc2C)cc1` [Compound 248, N-(4-(2-(3-methoxy-4-morpholinophenylao)-5-methylpyrimidin-4-ylthio)phenyl)acrylamide] were, in that order, over 1000 nM and under 20000 nM.
The like results for `C=CC(=O)Nc1ccc(Sc2nc(Nc3ccc(N4CCN(C)CC4)c(OC)c3)ncc2C)cc1` [Compound 249, N-(4-(2-(3-methoxy-4-(4-methylpiperazin-1-yl)phenylao)-5-methylpyrimidin-4-ylthio)phenyl)acrylamide] were, in that order, over 1000 nM and under 5000 nM.
The matching figures for `Cc1cnc(Nc2ccc(N3CCOCC3)cc2)nc1Sc1ccc(N)cc1Cl` [Compound 251, 4-(4-ao-2-chlorophenylthio)-5-methyl-N-(4-morpholinophenyl)pyrimidin-2-ae]: over 1000 nM and over 20000 nM.
As to `C=CC(=O)Nc1ccc(Sc2nc(Nc3ccc(N4CCC(CO)CC4)cc3)ncc2Br)cc1` [Compound 253, N-(4-(5-bromo-2-(4-(4-(hydroxymethyl)piperidin-1-yl)phenylao)pyrimidin-4-ylthio)phenyl)acrylamide], the IC50 in experiment [1] is over 1000 nM. The GI50 in experiment [2] is under 20000 nM.
